Reference: US20190343793A1, “COMPOSITIONS COMPRISING A CANNABINOID RECEPTOR BINDING LIGAND” (NOVALIQ GMBH, priority 2016, published 2019)

Assay: Storage stability in a liquid vehicle comprising a semifluorinated alkane

Compound: CCCCCc1cc(O)c2c(c1)OC(C)(C)[C@@H]1CCC(C)=C[C@@H]21 [delta-9-Tetrahydrocannabinol (THC), (−)-(6aR,10aR)-6,6,9-Trimethyl-3-pentyl-6a,7,8,10a-tetrahydro-6H-benzo[c]chromen-1-ol]
- Storage period when dissolved or suspended in liquid vehicle comprising semifluorinated alkane (liquid vehicle comprising at least one semifluorinated alkane): up to 2 years
- Stability when air was not excluded (liquid vehicle with high content of, or essentially consisting of, F4H5 or F6H8): stable even when air was not excluded
